Reference: paper PMC8488693 (Proceedings of the National Academy of Sciences of the …, 2021)

How the values were obtained:
Pf cultures = conditions: ref [9]; cited from earlier work
Hs20S β5c = Hs20S β5c (Homo sapiens, UniProt P20618+P28074); experiment: Hs20S β5c activity, Ac-WLA-AMC cleavage with human PA28αβ; assay type: biochemical

CC(C)C[C@H](NC(=O)[C@H](Cc1ccccc1)NC(=O)c1cnccn1)B(O)O [Bortezomib, bortezomib, reference compound]
Synergy with dihydroxyartemisinin (DHA) (Pf cultures): strong synergy | More potent as inhibitor of Hsβ5c activity than of Pfβ5 activity (Hs20S β5c): twofold
